Measured values reported in patent US20060166867A1, “Novel conjugates of polysaccharides and uses thereof” (priority 2003, published 2006).
Where two headings read alike, the source gives them in different places.

Experiments:
HIV-1 IIIB = assay: microbe, parasite or virus in culture; format: cell-based; settings: for inhibition activity (anti-HIV): in up to 50 μM concentrations
Experimental: (§1) Inhibition of HIV-1 cell replication was tested using the cMAGI assay, which is based on the ability of HIV-1 TAT to transactivate the expression of an integrated β-galactosidase reporter gene driven by the HIV-LTR (B. Chackeria et al., J. Virol., (1997) 71, 3932; Collins et al., Nat. Med. (2000) 6, 475). The β-galactosidase reporter is modified to remain localized in the nucleus where it can be detected with the X-gal (5-bromo-4-chloro-3indoyl-β-D-galactopyranoside) substrate as an intense nuclear stain within a few days of infection.
(§2) HIV-1 isolates were propagated by subculture in MT2 cells (Litovchick et al. (2001) supra). Aliquots of cell-free culture supernatants were used as viral inoculum. PAACs were dissolved in the RPMI 1640 medium. Cytotoxicity determinations were carried out in MT2 cells by trypan blue exclusion assay. Viral inhibition was determined by incubating MT2 or cMAGI HIV-1 reporter cells with 0.2-0.5 multiplicity of infection of HIV-1 wild type or resistant virus for 4 days at 37° C. in the presence or absence of various concentrations of pAACs. HIV-1 infection of cMAGI cells was determined by counting the number of HIV-1-infected cells (stained blue). The cytopathic effects of the viral infection of MT2 cells were also analyzed by microscopic assessment of syncytium formation.

CXCR4 = target: T1, CXCR4 (Homo sapiens, UniProt P61073); assay: Competition with 12G5 mAb binding to CXCR4 on MT2 cells (flow cytometry); settings: for median fluorescent intensity (MFI) of 12G5 mAb binding to MT2 cells: without compound 55.56, isotype control 4.0
T1 construct: incubated at 4° C. with anti-CXCR4 mAb, 12G5, conjugated to phycoerithrine (PE); endogenous in cells; host or cells: MT2 cells
T1 sequence (P61073 whole entry): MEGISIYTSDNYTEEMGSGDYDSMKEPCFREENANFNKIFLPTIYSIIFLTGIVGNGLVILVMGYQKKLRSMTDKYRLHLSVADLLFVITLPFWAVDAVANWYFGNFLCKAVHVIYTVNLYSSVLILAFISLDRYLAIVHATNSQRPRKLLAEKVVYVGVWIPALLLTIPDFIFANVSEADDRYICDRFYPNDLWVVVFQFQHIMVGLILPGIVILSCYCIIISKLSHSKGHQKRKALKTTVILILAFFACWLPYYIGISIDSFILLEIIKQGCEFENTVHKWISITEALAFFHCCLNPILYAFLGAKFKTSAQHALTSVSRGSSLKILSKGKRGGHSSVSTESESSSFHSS
Experimental: Interaction of pAACs and arginine peptides with CXCR4 coreceptor: Interactions of pAACs and arginine-peptides with CXCR4 were determined by flow cytometry (FACS-Scan, Becton Dickinson) as previously described (Litovich (2001) supra). In brief, 0.5×10^6 MT2 cells were washed with ice-cold PBS containing 0.1% sodium azide (wash buffer) and were incubated at 4° C. with anti-CXCR4 mAb, 12G5, conjugated to phycoerithrine (PE), in the absence or presence of different concentrations of pAACs and arginine peptides. After 30 minutes of incubation, the cells were washed with ice-cold wash buffer and fixed in PBS containing 1% paraformaldehyde. Non-specific fluorescence was assessed using an isotype control. For each sample 10,000 events were acquired. Data were analyzed and processed using CellQuest™ software (Becton Dickinson).

in vitro = format: cell-based; settings: human, read-out: Cytotoxicity
Experimental: Cytotoxicity of the various pAACs was determined using the trypan blue exclusion assay. In brief, a sample of the cell suspension was diluted 1:1 (v/v) with 0.4% trypan blue and the cells were counted using a hemocytometer. Results are expressed as the percentage of dead cells.
as §2

[1] = test system: HIV-1 NeoR6 resistant virus; format: cell-based; settings: read-out: EC50 NeoR6^Res; Table 4
Experimental: as §1, §2

HIV-1 Ba-L = format: cell-based; settings: Table 4
Experimental: as §1, §2

[2] = test system: HIV-1 AZT resistant virus; format: cell-based; settings: Table 4; read-out: EC50 AZT^Res
Experimental: as §1, §2

[3] = test system: HIV-1 clinical isolate Clade C; format: cell-based
Experimental: as §1, §2

[4] = test system: HIV-1 clinical isolate Clade A; format: cell-based
Experimental: as §1, §2

[5] = test system: HIV-1 Protease resistant virus; format: cell-based; settings: Table 4; read-out: EC50 Protease^Res
Experimental: as §1, §2

[6] = test system: HIV-1 wild-type and NeoR6 resistant isolates; settings: cited from earlier work
[7] = Table 3, against HIV-1 IIIB virus, read-out: EC50
[8] = MT2 cells, Table 3, trypan blue exclusion
[9] = Table 4, tryphan blue exclusion assay for MT2 cells
[10] = Table 4, read-out: EC50 Clade C
[11] = Table 4, read-out: EC50 Clade A

Compound: N=C(N)NCCC[C@H](NC(=O)[C@H](CCCNC(=N)N)NC(=O)[C@H](CCCNC(=N)N)NC(=O)[C@H](CCCNC(=N)N)NC(=O)[C@H](CCCNC(=N)N)NC(=O)[C@@H](N)CCCNC(=N)N)C(=O)O [Compound 1, L-Arg-6mer-NH2]
- EC50 (HIV-1 IIIB; [7]): 110 µM
- inhibition activity (anti-HIV) (HIV-1 IIIB): no inhibition activity

Compound: N=C(N)NCCC[C@H](NC(=O)[C@H](CCCNC(=N)N)NC(=O)[C@H](CCCNC(=N)N)NC(=O)[C@H](CCCNC(=N)N)NC(=O)[C@H](CCCNC(=N)N)NC(=O)[C@@H](N)CCCNC(=N)N)C(=O)NC[C@H]1O[C@H](O[C@H]2[C@H](O)[C@@H](O)[C@H](N)C[C@@H]2N)[C@H](N)[C@@H](O)[C@@H]1O [Compound 2, L-Arg-6-mer-neamine]
- inhibition at 20 µM (CXCR4; read-out: % Inhibition of 12G5 mAb binding to CXCR4, 20 μM): 35.4%
- EC50 (HIV-1 IIIB; [7]): 70 ± 10 µM
- CC50 (in vitro; [8]): 210 µM

Compound: N=C(N)NCCC[C@H](NC(=O)[C@H](CCCNC(=N)N)NC(=O)[C@H](CCCNC(=N)N)NC(=O)[C@H](CCCNC(=N)N)NC(=O)[C@H](CCCNC(=N)N)NC(=O)[C@@H](N)CCCNC(=N)N)C(=O)NC[C@@H]1O[C@H](O[C@H]2[C@@H](O)[C@H](O[C@@H]3[C@@H](O)[C@H](N)C[C@H](N)[C@H]3O[C@H]3O[C@H](CO)[C@@H](O)[C@H](O)[C@H]3N)O[C@@H]2CO)[C@H](N)[C@@H](O)[C@@H]1O [Compound 3, L-Arg-6-mer-paromomycin]
- EC50 (HIV-1 IIIB; [7]): 31 ± 10 µM
- CC50 (in vitro; [8]): 160 µM

Compound: N=C(N)NCCC[C@H](NC(=O)[C@H](CCCNC(=N)N)NC(=O)[C@H](CCCNC(=N)N)NC(=O)[C@H](CCCNC(=N)N)NC(=O)[C@H](CCCNC(=N)N)NC(=O)[C@H](CCCNC(=N)N)NC(=O)[C@H](CCCNC(=N)N)NC(=O)[C@H](CCCNC(=N)N)NC(=O)[C@@H](N)CCCNC(=N)N)C(=O)NC[C@H]1O[C@H](O[C@H]2[C@H](O)[C@@H](O)[C@H](N)C[C@@H]2N)[C@H](N)[C@@H](O)[C@@H]1O [Compound 6, L-Arg-9-mer-neamine]
- inhibition at 80 µM (CXCR4; read-out: % Inhibition of 12G5 mAb binding to CXCR4, 80 μM): 30.1%
- EC50 (HIV-1 IIIB; [7]): 37.5 ± 2.5 µM
- CC50 (in vitro; [8]): 175 µM

Compound: N=C(N)NCCC[C@H](NC(=O)[C@H](CCCNC(=N)N)NC(=O)[C@H](CCCNC(=N)N)NC(=O)[C@H](CCCNC(=N)N)NC(=O)[C@H](CCCNC(=N)N)NC(=O)[C@H](CCCNC(=N)N)NC(=O)[C@H](CCCNC(=N)N)NC(=O)[C@H](CCCNC(=N)N)NC(=O)[C@@H](N)CCCNC(=N)N)C(=O)NC[C@@H]1O[C@H](O[C@H]2[C@@H](O)[C@H](O[C@@H]3[C@@H](O)[C@H](N)C[C@H](N)[C@H]3O[C@H]3O[C@H](CO)[C@@H](O)[C@H](O)[C@H]3N)O[C@@H]2CO)[C@H](N)[C@@H](O)[C@@H]1O [Compound 7, L-Arg-9-mer-paromomycin]
- EC50 (HIV-1 IIIB; [7]): 31 ± 9 µM
- CC50 (in vitro; [8]): 140 µM

Compound: CC(=O)N[C@H](CCCNC(=N)N)C(=O)N[C@H](CCCNC(=N)N)C(=O)N[C@H](CCCNC(=N)N)C(=O)N[C@H](CCCNC(=N)N)C(=O)N[C@H](CCCNC(=N)N)C(=O)N[C@H](CCCNC(=N)N)C(=O)O [Compound 9, D-Arg-6-mer-NHAc]
- inhibition at 2 µM (CXCR4; 2 μM, read-out: % Inhibition of 12G5 mAb binding to CXCR4): 1.6%
- inhibition at 10 µM (CXCR4; 10 μM, read-out: % Inhibition of 12G5 mAb binding to CXCR4): 70.9%
- EC50 [1]: 6.8 ± 0.7 µM
- EC50 (HIV-1 Ba-L): > 50 µM
- EC50 [2]: 15.2 ± 6.2 µM
- EC50 ([3]; clinical isolate Clade C): 5.3 ± 0.3 µM
- EC50 ([4]; clinical isolate Clade A): 8 ± 1 µM
- EC50 [5]: 4.9 ± 1 µM
- EC50 (HIV-1 IIIB; Table 4, read-out: EC50 IIIB): 5.8 ± 1.7 µM
- CC50 (in vitro; [9]): 170 µM

Compound: CC(=O)N[C@H](CCCNC(=N)N)C(=O)N[C@H](CCCNC(=N)N)C(=O)N[C@H](CCCNC(=N)N)C(=O)N[C@H](CCCNC(=N)N)C(=O)N[C@H](CCCNC(=N)N)C(=O)N[C@H](CCCNC(=N)N)C(=O)NC[C@H]1O[C@H](O[C@H]2[C@H](O)[C@@H](O)[C@H](N)C[C@@H]2N)[C@H](N)[C@@H](O)[C@@H]1O [Compound 10, D-Arg-6-mer-neamine]
- % Inhibition of 12G5 mAb binding to CXCR4 (CXCR4; 2 μM): 91.1%
- median fluorescent intensity (MFI) of 12G5 mAb binding to MT2 cells (CXCR4; 2 μM): 9.6
- median fluorescent intensity (MFI) of 12G5 mAb binding to MT2 cells (CXCR4; 10 μM): 3.3
- inhibition at 2 µM (CXCR4; read-out: % Inhibition of 12G5 mAb binding to CXCR4, 2 μM): 91%
- inhibition at 10 µM (CXCR4; read-out: % Inhibition of 12G5 mAb binding to CXCR4, 10 μM): 100%
- EC50 [1]: 2.6 ± 1.2 µM
- EC50 (HIV-1 Ba-L): > 50 µM
- EC50 [2]: 7 ± 4 µM
- EC50 [3, 10]: 1.7 ± 0.1 µM
- EC50 [4, 11]: 3.2 ± 1.3 µM
- EC50 [5]: 2.2 ± 0.4 µM
- EC50 (HIV-1 IIIB; Table 4, read-out: EC50 IIIB): 1.8 ± 0.1 µM
- CC50 (in vitro; [9]): 150 µM

Compound: N=C(N)NCCCC(N)C(=O)NC(CCCNC(=N)N)C(=O)NC(CCCNC(=N)N)C(=O)NC(CCCNC(=N)N)C(=O)NC(CCCNC(=N)N)C(=O)NC(CCCNC(=N)N)C(=O)NC(CCCNC(=N)N)C(=O)NC(CCCNC(=N)N)C(=O)NC(CCCNC(=N)N)C(=O)NC[C@H]1O[C@H](O[C@H]2[C@H](O)[C@@H](O)[C@H](N)C[C@@H]2N)[C@H](N)[C@@H](O)[C@@H]1O (stereo partly drawn) [Compound 16, D/L-Arg-9-mer-neamine]
- CC50 (in vitro; [8]): 160 µM

Compound: N=C(N)NCCC[C@H](NC(=O)[C@@H](N)CCCNC(=N)N)C(=O)NCC1OC(OC2C(N)CC(N)C(O)C2O)C(N)C(O)C1O (stereo partly drawn) [Compound 21, L-Arg-2-mer-neamine]
- EC50 (HIV-1 IIIB; [7]): ~46 µM

Compound: NC[C@H]1O[C@H](O[C@H]2[C@H](O)[C@@H](O)[C@H](N)C[C@@H]2N)[C@H](N)[C@@H](O)[C@@H]1O [neamine, Neamine, reference compound]
- inhibition activity (anti-HIV) (HIV-1 IIIB): no inhibition activity

Compound: D-Arg-6-mer-neomycin [Compound 11]
- % Inhibition of 12G5 mAb binding to CXCR4 (CXCR4; 2 μM): 79%
- % Inhibition of 12G5 mAb binding to CXCR4 (CXCR4; 2 μM, listed as r6-D-arginine-neomycin): 91.1%
- % Inhibition of 12G5 mAb binding to CXCR4 (CXCR4; 10 μM): 99.3%
- EC50 [1]: 5.3 ± 2.5 µM
- EC50 (HIV-1 Ba-L): > 50 µM
- EC50 [2]: 10.4 ± 4.1 µM
- EC50 [3, 10]: 3 ± 0.8 µM
- EC50 [4, 11]: 5.7 ± 2.8 µM
- EC50 [5]: 4 ± 1 µM
- EC50 (HIV-1 IIIB; Table 4, read-out: EC50 IIIB): 2.1 ± 0.6 µM

Compound: L-Arg-6-mer-neomycin [Compound 4]
- EC50 (HIV-1 IIIB; [7]): 40 ± 12 µM

Compound: tri-arginine gentamycin C1 conjugate [Compound R3G]
- times more resistant, NeoR6^res isolates than wild-type virus [6]: about 5 times
- EC50 ([6]; wild-type and NeoR6 resistant isolates): 4.1 µM
